According to patent US20100311586A1, “HERBICIDAL COMBINATION” (Bayer CorpScience AG, priority 2007, published 2010):
Values joined by “and” are separate entries in the source; they are usually repeats but may differ in a detail not shown here. Identical values can stand only once.

Test system: Polygonum convolvulus
Assay: Post-emergence action against weeds, greenhouse pot test, visual scoring
Type: in vivo
Conditions: 11 days after application, 0%=no control, 100%=complete control
Procedure: Seeds or rhizome pieces of monocotyledonous and dicotyledonous weeds were placed in sandy loam soil in plastic pots, covered with soil and cultivated in a greenhouse under good growth conditions. Three weeks after sowing, the test plants were treated at the 2- to 4-leaf stage. The compounds according to the invention, formulated as wettable powders or as emulsion concentrates, were sprayed onto the green parts of the plants in various dosages at a water application rate of 100 to 800 I/ha (converted). After the test plants had been left to stand in the greenhouse for 10 to 28 days under optimum growth conditions, the effect of the preparations was scored visually in comparison to untreated controls.
0%=no control 100%=complete control

For `COC(=O)C(C)Oc1ccc(Oc2ccc(Cl)cc2Cl)cc1` (centres unmarked) [Compound B7-3, diclofop-methyl], the “Polygonum convolvulus Control in %” value (1000 g of ai/ha) was 15%.
For `Nc1c([N+](=O)[O-])ccc(Oc2ccccc2)c1Cl` [Compound B1-2, aclonifen], the “Polygonum convolvulus Control in %” value (100 g of ai/ha) was 20%.
For `Cc1cc(Cl)ccc1OCC(=O)O` [Compound B5-3, MCPA], the “Polygonum convolvulus Control in %” value (200 g of ai/ha) was 50%.
For `CCOC(=O)[C@@H](C)Oc1ccc(Oc2nc3ccc(Cl)cc3o2)cc1` [Compound B7-5, fenoxaprop-P-ethyl], the “Polygonum convolvulus Control in %” value (45 g of ai/ha) was 35%.
In the case of `O=C(O)COc1ccc(Cl)cc1Cl` [Compound B5-2, 2,4-D], the “Polygonum convolvulus Control in %” value (200 g of ai/ha) is reported as 55%.
In the case of `Cc1cc(Cl)ccc1O[C@H](C)C(=O)O` [Compound B4-5, mecoprop-P], the “Polygonum convolvulus Control in %” value (200 g of ai/ha) is reported as 50%.
For `C#CCOC(=O)[C@@H](C)Oc1ccc(Oc2ncc(Cl)cc2F)cc1` [Compound B7-1, clodinafop-propargyl], the “Polygonum convolvulus Control in %” value (20 g of ai/ha) was 5%.
“sodium salt of 2-iodo-N-[(4-methoxy-6-methyl-1,3,5-triazin-2-yl)carbamoyl]benzenesulfonamide [Compound A-2]” was tested, and the “Polygonum convolvulus Control in %” value (2.5 g of ai/ha) was 10% and 20%.
